Source: BigSolDB 2.1

O=C(N[C@H](Cc1c[nH]c2ccccc12)C(=O)O)OCC1c2ccccc2-c2ccccc21
Settings	solubility (mole fraction)
in acetone, 283.15 K	0.0377
in acetone, 288.15 K	0.0387
in acetone, 293.15 K	0.0407
in acetone, 298.15 K	0.0432
in acetone, 303.15 K	0.0456
in acetone, 308.15 K	0.0483
in acetone, 313.15 K	0.0533
in acetone, 318.15 K	0.059
in acetone, 323.15 K	0.0651
in acetonitrile, 283.15 K	0.00128
in acetonitrile, 288.15 K	0.0015
in acetonitrile, 293.15 K	0.00164
in acetonitrile, 298.15 K	0.00197
in acetonitrile, 303.15 K	0.00229
in acetonitrile, 308.15 K	0.00296
in acetonitrile, 313.15 K	0.00382
in acetonitrile, 318.15 K	0.00498
in acetonitrile, 323.15 K	0.0067
in ethanol, 283.15 K	0.00439
in ethanol, 288.15 K	0.00448
in ethanol, 293.15 K	0.00492
in ethanol, 298.15 K	0.00538
in ethanol, 303.15 K	0.00604
in ethanol, 308.15 K	0.00688
in ethanol, 313.15 K	0.00763
in ethanol, 318.15 K	0.00893
in ethanol, 323.15 K	0.0103
in ethyl acetate, 283.15 K	0.00673
in ethyl acetate, 288.15 K	0.00688
in ethyl acetate, 293.15 K	0.00733
in ethyl acetate, 298.15 K	0.0079
in ethyl acetate, 303.15 K	0.00866
in ethyl acetate, 308.15 K	0.00931
in ethyl acetate, 313.15 K	0.0101
in ethyl acetate, 318.15 K	0.0111
in ethyl acetate, 323.15 K	0.0123
in isobutanol, 283.15 K	0.00112
in isobutanol, 288.15 K	0.00118
in isobutanol, 293.15 K	0.00147
in isobutanol, 298.15 K	0.0019
in isobutanol, 303.15 K	0.00222
in isobutanol, 308.15 K	0.00244
in isobutanol, 313.15 K	0.00294
in isobutanol, 318.15 K	0.00363
in isobutanol, 323.15 K	0.00458
in isopropanol, 283.15 K	0.00176
in isopropanol, 288.15 K	0.00206
in isopropanol, 293.15 K	0.00244
in isopropanol, 298.15 K	0.00309
in isopropanol, 303.15 K	0.00365
in isopropanol, 308.15 K	0.00469
in isopropanol, 313.15 K	0.00545
in isopropanol, 318.15 K	0.00642
in isopropanol, 323.15 K	0.00814
in methanol, 283.15 K	0.00434
in methanol, 283.16 K	0.0044
in methanol, 283.17 K	0.00446
in methanol, 283.18 K	0.00452
in methanol, 283.19 K	0.00458
in methanol, 288.15 K	0.00437
in methanol, 288.16 K	0.00443
in methanol, 288.17 K	0.00449
in methanol, 288.18 K	0.00455
in methyl acetate, 283.15 K	0.00812
in methyl acetate, 288.15 K	0.00881
in methyl acetate, 293.15 K	0.0097
in methyl acetate, 298.15 K	0.0102
in methyl acetate, 303.15 K	0.0112
in methyl acetate, 308.15 K	0.0126
in methyl acetate, 313.15 K	0.014
in methyl acetate, 318.15 K	0.0159
in methyl acetate, 323.15 K	0.0174
in n-butanol, 283.15 K	0.00247
in n-butanol, 288.15 K	0.00264
in n-butanol, 293.15 K	0.00297
in n-butanol, 298.15 K	0.0034
in n-butanol, 303.15 K	0.00417
in n-butanol, 308.15 K	0.0046
in n-butanol, 313.15 K	0.00552
in n-butanol, 318.15 K	0.00656
in n-butanol, 323.15 K	0.00807
in n-butyl acetate, 283.15 K	0.00381
in n-butyl acetate, 288.15 K	0.00396
in n-butyl acetate, 293.15 K	0.0042
in n-butyl acetate, 298.15 K	0.00449
in n-butyl acetate, 303.15 K	0.00481
in n-butyl acetate, 308.15 K	0.00533
in n-butyl acetate, 313.15 K	0.00581
in n-butyl acetate, 318.15 K	0.00636
in n-butyl acetate, 323.15 K	0.00743
in n-propanol, 283.15 K	0.00255
in n-propanol, 288.15 K	0.003
in n-propanol, 293.15 K	0.00336
in n-propanol, 298.15 K	0.00378
in n-propanol, 303.15 K	0.00422
in n-propanol, 308.15 K	0.0049
in n-propanol, 313.15 K	0.00587
in n-propanol, 318.15 K	0.00683
in n-propanol, 323.15 K	0.00825
in n-propyl acetate, 283.15 K	0.00437
in n-propyl acetate, 288.15 K	0.00461
in n-propyl acetate, 293.15 K	0.00506
in n-propyl acetate, 298.15 K	0.0055
in n-propyl acetate, 303.15 K	0.00595
in n-propyl acetate, 308.15 K	0.00658
in n-propyl acetate, 313.15 K	0.0071
in n-propyl acetate, 318.15 K	0.00793
in n-propyl acetate, 323.15 K	0.00903
